According to US8906909B2 (Curis, Inc., priority 2009, dated 2014):
pIC50: −log10 of the molar value. Like-named read-outs stand apart in the source and are kept apart here.

Tests used:
[1] = test system: H1993 cells; assay: Cell proliferation assay Method A (ATPlite), H1993; type: cell-based; details: Homo sapiens, NCI-H1993, 72 hours, read-out: antiproliferative activity IC50, H1993
Method: (§1) Cancer cell lines were plated at 5,000 to 10,000 per well in 96-well flat bottomed plates with various concentration of compounds. The cells were incubated with compounds for 72 hours in the presence of 0.5% of fetal bovine serum. Growth inhibition was accessed by adenosine triphosphate (ATP) content assay using Perkin Elmer ATPlite kit. ATPlite is an ATP monitoring system based on firefly luciferase. Briefly, 25 μl of mammalian cell lysis solution was added to 50 μl of phenol red-free culture medium per well to lyse the cells and stabilize the ATP. 25 μl of substrate solution was then added to the well and subsequently the luminescence was measured.

[2] = test system: MDA-MB-468 cells; assay: Cell proliferation assay Method B, MDA-MB-468; type: cell-based; details: Homo sapiens, 72 hours, read-out: antiproliferative activity IC50, MDA-MB-468
Method: (§2) Cancer cell lines were plated at 5,000 to 10,000 per well in 96-well flat bottomed plates with various concentration of compounds. The cells were incubated with compounds for 72 hours in the presence of 0.5% of fetal bovine serum. Growth inhibition was accessed by adenosine triphosphate (ATP) content assay using Promega CellTiter-Glo kit. Promega CellTiter-Glo kit is an ATP monitoring system based on firefly luciferase. Briefly, 16 μl of mammalian cell lysis and substrate solution was added to 84 μl of culture medium per well to lyse the cells and stabilize the ATP. The mixture was shaken and incubated for 30 minutes and subsequently the luminescence was measured.

[3] = test system: BT-474 cells; assay: Cell proliferation assay Method A (ATPlite), BT-474; type: cell-based; details: Homo sapiens, 72 hours, read-out: antiproliferative activity IC50, BT-474
Method: as §1

[4] = test system: Sk-Mel-28 cells; assay: Cell proliferation assay Method A (ATPlite), Sk-Mel-28; type: cell-based; details: Homo sapiens, 72 hours, read-out: antiproliferative activity IC50, Sk-Mel-28
Method: as §1

[5] = test system: H1975 cells; assay: Cell proliferation assay Method B, H1975; type: cell-based; details: Homo sapiens, NCI-H1975, NSCLC, 72 hours, read-out: antiproliferative activity IC50, H1975
Method: as §2

[6] = test system: HCC1937 cells; assay: Cell proliferation assay Method B, HCC1937; type: cell-based; details: Homo sapiens, 72 hours, read-out: antiproliferative activity IC50, HCC1937
Method: as §2

[7] = test system: HDACs (HeLa cell nuclear extracts); assay: HDAC enzymatic activity, Biomol Color de Lys system; type: biochemical
In short: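 IC50 from sigmoidal dose-response fits of fluorescence (Ex 350–380, Em 440–460 nm). Compounds in DMSO dilution series incubated 1 h at 25 °C with HeLa nuclear extract HDACs and colorimetric substrate, pH 8.0 Tris/Cl buffer with NaCl, KCl, MgCl2, before developer termination.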

[8] = test system: U87MG cells; assay: Cell proliferation assay Method B, U87MG; type: cell-based; details: Homo sapiens, U-87 MG, Glioblastoma, 72 hours, read-out: antiproliferative activity IC50, U87MG
Method: as §2

[9] = test system: Sk-Mel-28 cells; assay: Cell proliferation assay Method B, Sk-Mel-28; type: cell-based; details: Homo sapiens, Melanoma, 72 hours, read-out: antiproliferative activity IC50, Sk-Mel-28
Method: as §2

[10] = test system: HCT-118 cells; assay: Cell proliferation assay Method A (ATPlite), HCT-118; type: cell-based; details: 72 hours, read-out: antiproliferative activity IC50, HCT-118
Method: as §1

[11] = test system: BT474 cells; assay: Cell proliferation assay Method B, BT474; type: cell-based; details: Homo sapiens, BT-474, 72 hours, read-out: antiproliferative activity IC50, BT474
Method: as §2

[12] = test system: H1993 cells; assay: Cell proliferation assay Method B, H1993; type: cell-based; details: Homo sapiens, NCI-H1993, NSCLC, 72 hours, read-out: antiproliferative activity IC50, H1993
Method: as §2

[13] = test system: MDA-MB-436 cells; assay: Cell proliferation assay Method B, MDA-MB-436; type: cell-based; details: Homo sapiens, Breast, Method B, 72 hours, read-out: antiproliferative activity IC50, MDA-MB-436
Method: as §2

[14] = test system: A375 cells; assay: Cell proliferation assay Method B, A375; type: cell-based; details: Homo sapiens, A-375; Melanoma; Method B; 72 hours; read-out: antiproliferative activity IC50, A375
Method: as §2

[15] = test system: RPMI-8226 cells; assay: Cell proliferation assay Method B, RPMI-8226; type: cell-based; details: Homo sapiens, Multiple Myeloma, 72 hours, read-out: antiproliferative activity IC50, RPMI-8226
Method: as §2

[16] = 0.5% fetal bovine serum, CellTiter-Glo
[17] = Sk-Mel-28, 0.5% fetal bovine serum, CellTiter-Glo
[18] = BT474, 0.5% fetal bovine serum, CellTiter-Glo
[19] = H1993, 0.5% fetal bovine serum, CellTiter-Glo

SMILES	pIC50 [1]	pIC50 [3]	pIC50 [4]	pIC50 [7]	melting point [°C]	pIC50 [9, 17]	pIC50 [10]	pIC50 [14]	also measured
CN(Cc1cc2nc(-c3cccc4[nH]ncc34)nc(N3CCOCC3)c2s1)c1ncc(C(=O)NO)cn1 [Compound 54, 2-(((2-(1H-indazol-4-yl)-4-morpholinothieno[3,2-d]pyrimidin-6-yl)methyl)(methyl)amino)-N-hydroxypyrimidine-5-carboxamide]	> 7.00	> 7.00	> 7.00	> 7.00	197 to 200	7.00 to 8.00	> 7.00	–	pIC50 [2, 16]: > 8.00; pIC50 ([5]; H1975, 0.5% fetal bovine serum, CellTiter-Glo): 7.00 to 8.00; pIC50 [6, 16]: 7.00 to 8.00; pIC50 ([8]; U87MG, 0.5% fetal bovine serum, CellTiter-Glo): 7.00 to 8.00; pIC50 [11, 18]: > 8.00; pIC50 [12, 19]: 7.00 to 8.00
Cc1ncc(-c2nc(N3CCOCC3)c3sc(CN(C)c4ncc(C(=O)NO)cn4)cc3n2)cn1 [Compound 120, N-hydroxy-2-(methyl((2-(2-methylpyrimidin-5-yl)-4-morpholinothieno[3,2-d]pyrimidin-6-yl)methyl)amino)pyrimidine-5-carboxamide]	–	–	–	> 7.00	184 to 186	–	–	7.00 to 8.00	pIC50 ([2]; Breast, Method B): 7.00 to 8.00; pIC50 [13]: 7.00 to 8.00; pIC50 ([5]; Method B): 7.00 to 8.00; pIC50 ([6]; Breast, Method B): 7.00 to 8.00; pIC50 ([8]; Method B): 7.00 to 8.00; pIC50 ([9]; SK-MEL-28, Method B): 7.00 to 8.00; pIC50 ([11]; Breast, Method B): 7.00 to 8.00; pIC50 ([15]; Method B): > 8.00; pIC50 ([12]; Method B): 7.00 to 8.00
Cc1nc(N)ncc1-c1nc(N2CCOCC2)c2sc(CN(C)c3ncc(C(=O)NO)cn3)cc2n1 [Compound 125, 2-(((2-(2-amino-4-methylpyrimidin-5-yl)-4-morpholinothieno[3,2-d]pyrimidin-6-yl)methyl)(methyl)amino)-N-hydroxypyrimidine-5-carboxamide]	6.00 to 7.00	> 7.00	6.00 to 7.00	> 7.00	195 to 198	6.00 to 7.00	> 7.00	–	pIC50 [11, 18]: 7.00 to 8.00; pIC50 [12, 19]: 6.00 to 7.00
CN(Cc1cc2nc(-c3cccc(CO)c3)nc(N3CCOCC3)c2s1)c1ncc(C(=O)NO)cn1 [Compound 138, N-hydroxy-2-(((2-(3-(hydroxymethyl)phenyl)-4-morpholinothieno[3,2-d]pyrimidin-6-yl)methyl)(methyl)amino)pyrimidine-5-carboxamide]	> 7.00	> 7.00	> 7.00	> 7.00	160 to 164	–	> 7.00	7.00 to 8.00	pIC50 ([2]; Breast, Method B): 7.00 to 8.00; pIC50 [13]: 7.00 to 8.00; pIC50 ([5]; Method B): 7.00 to 8.00; pIC50 ([6]; Breast, Method B): 7.00 to 8.00; pIC50 ([8]; Method B): > 8.00; pIC50 ([9]; SK-MEL-28, Method B): 7.00 to 8.00; pIC50 ([11]; Breast, Method B): > 8.00; pIC50 ([12]; Method B): 7.00 to 8.00
CN(Cc1cc2nc(-c3cccc(OCCO)c3)nc(N3CCOCC3)c2s1)c1ncc(C(=O)NO)cn1 [Compound 289, 2-({2-[3-(2-Hydroxy-ethoxy)-phenyl]-4-morpholin-4-yl-thieno[3,2-d]pyrimidin-6-ylmethyl}-methyl-amino)-pyrimidine-5-carboxylic acid hydroxyamide]	–	–	–	> 7.00	148 to 152	> 8.00	–	–	pIC50 [15, 16]: > 8.00
CN(Cc1cc2nc(-c3cc(O)ccc3F)nc(N3CCOCC3)c2s1)c1ncc(C(=O)NO)cn1 [Compound 292, 2-(((2-(2-Fluoro-5-hydroxyphenyl)-4-morpholinothieno[3,2-d]pyrimidin-6-yl)methyl)(methyl)amino)-N-hydroxypyrimidine-5-carboxamide]	–	–	–	> 7.00	250 to 255	–	–	> 8.00	–
CC(O)c1cccc(-c2nc(N3CCOCC3)c3sc(CN(C)c4ncc(C(=O)NO)cn4)cc3n2)c1 (centres unmarked) [Compound 294, N-Hydroxy-2-(((2-(3-(1-hydroxyethyl)phenyl)-4-morpholinothieno[3,2-d]pyrimidin-6-yl)methyl)(methyl)amino)pyrimidine-5-carboxamide]	–	–	–	> 7.00	–	> 8.00	–	–	pIC50 [15, 16]: > 8.00
